Measurements published in patent publication US8633166B2, “Methicillin-resistant Staphylococcus aureus active metabolites” (priority 2009, dated 2014).

Tests used:
Streptococcus agalactiae = test: In vitro MIC, broth microdilution (CLSI); type: cell-based; settings: MHB II with 2% lysed horse blood
Method: (§1) All test articles were dissolved in DMSO. Stock solutions were prepared at 40-fold the highest concentration in the test plate. The final concentration of DMSO in the test system was 2.5%.
(§2) The medium employed for the MIC assay was Mueller Hinton II Broth (MHB II-Becton Dickinson, #212322, Lot #9044411) for most of the organisms. MHB II was supplemented with 2% lysed horse blood (Cleveland Scientific Lot #22299-1) to accommodate the growth of Streptococcus pneumoniae, Streptococcus pyogenes and Streptococcus agalactiae. The media were prepared at 102.5% the normal weight to offset the dilution created by the addition of 5 μL drug solution to each well of the microdilution panels.
(§3) The MIC assay method followed the procedure described by the Clinical and Laboratory Standards Institute (see Clinical and Laboratory Standards Institute. Methods for Dilution Antimicrobial, Susceptibility Tests for Bacteria That Grow Aerobically; Approved Standard—Eighth Edition. CLSI document M07-A8 [ISBN 1-56238-689-1]. Clinical and Laboratory, Standards Institute, 940 West Valley Road, Suite 1400, Wayne, Pa. 19087-1898 USA, 2009) and employed automated liquid handlers to conduct serial dilutions and liquid transfers. Automated liquid handlers included the Multidrop 384 (Labsystems, Helsinki, Finland), Biomek 2000 and Multimek 96 (Beckman Coulter, Fullerton Calif.).
(§4) The wells of Columns 2-12 of standard 96-well microdilution plates (Falcon 3918) were filled with 150 μL of DMSO on the Multidrop 384. The drugs (300 μL) were dispensed into Column 1 of the appropriate row in these plates. These would become the mother plates from which the test plates (daughter plates) were prepared. The Biomek 2000 completed serial transfers through Column 11 in the mother plates. The wells of Column 12 contained no drug and were the organism growth control wells in the daughter plates. The daughter plates were loaded with 185 μL of the appropriate test media (described above) using the Multidrop 384. The daughter plates were prepared on the Multimek 96 instrument which transferred 5 μL of drug solution from each well of a mother plate to each corresponding well of each daughter plate in a single step. Therefore, the test agents were maintained in solution in 100% DMSO up until the point of being added to the final test medium.
(§5) Standardized inoculum of each organism was prepared per CLSI methods (See Clinical and Laboratory Standards Institute. Performance Standards for Antimicrobial Susceptibility Testing; Nineteenth Informational Supplement. CLSI document M100-S19 [ISBN 1-56238-690-5]. Clinical and Laboratory Standards Institute, 940 West Valley Road, Suite 1400, Wayne, Pa. 19087-1898 USA, 2009.). Suspensions were prepared in MHB to equal the turbidity of a 0.5 McFarland standard. The suspensions were diluted 1:9 in broth appropriate to the organism. The inoculum for each organism was dispensed into sterile reservoirs divided by width (Beckman Coulter), and the Biomek 2000 was used to inoculate the plates. Daughter plates were placed on the Biomek 2000 work surface reversed so that inoculation took place from low to high drug concentration. The Biomek 2000 delivered 10 μL of standardized inoculum into each well. This yielded a final cell concentration in the daughter plates of approximately 5×10^5 colony-forming-units/mL. Thus, the wells of the daughter plates ultimately contained 185 μL of broth, 5 μL of drug solution, and 10 μL of bacterial inoculum. The final concentration of DMSO in the assay plate was 2.5%.
(§6) Plates were stacked 3 high, covered with a lid on the top plate, placed in plastic bags, and incubated at 35° C. for approximately 18 hours for most of the isolates. The Streptococcus plates were read after 20 hours of incubation. The microplates were viewed from the bottom using a plate viewer. […] The MIC was read and recorded as the lowest concentration of drug that inhibited visible growth of the organism.

Enterococcus faecalis = test: In vitro MIC, broth microdilution (CLSI); type: cell-based
Method: as §1, §2, §3, §4, §5, §6

Staphylococcus aureus = test: In vitro MIC, broth microdilution (CLSI); type: cell-based
Method: as §1, §2, §3, §4, §5, §6

Streptococcus pyogenes = test: In vitro MIC, broth microdilution (CLSI); type: cell-based; settings: MHB II with 2% lysed horse blood
Method: as §1, §2, §3, §4, §5, §6

[1] = system: Staphylococcus epidermidis; test: In vitro MIC, broth microdilution (CLSI); type: cell-based
Method: as §1, §2, §3, §4, §5, §6

Streptococcus pneumoniae = test: In vitro MIC, broth microdilution (CLSI); type: cell-based; settings: MHB II with 2% lysed horse blood
Method: as §1, §2, §3, §4, §5, §6

Enterococcus faecium = test: In vitro MIC, broth microdilution (CLSI); type: cell-based
Method: as §1, §2, §3, §4, §5, §6

[2] = Maximum tolerated dose, preliminary experiment; type: in vivo, Mice (CD-1); settings: 20 mg/kg IP for two days
Method: The number of MRSA isolated from vancomycin treated animals was 2.2×10^7 g of tissue, a reduction of 72% compared to vehicle control. Similarly, the number of MRSA recovered after treatment with compound (I) at 3 mg/kg and 15 mg/kg were 2.6×10^7 and 1.8×10^7 respectively, which correspond to a reduction of 67% and 78% as compared to vehicle control. […] To determine the maximum tolerated dose in the preliminary experiment, a maximum of 20 mg/kg of compound (1) was giving IP for two days.

enterococci = test: In vitro MIC, for enterococci; type: cell-based; settings: E. faecalis and E. faecium, vancomycin-susceptible and vancomycin-resistant strains
Method: as §1
as §2, with “panels. […]” for “panels.”
as §6, with “incubation.” for “incubation. The microplates were viewed from the bottom using a plate viewer.”

streptococci = test: In vitro MIC, streptococci; type: cell-based, Streptococcus; settings: highest concentrations considered for MIC readings
Method: as §1
as §2, with “panels. […]” for “panels.”
as §6, with “incubation.” for “incubation. The microplates were viewed from the bottom using a plate viewer.”

C[C@@H]1O[C@@H](Oc2c(-c3ccc(O)cc3)oc3cc(O)cc(O)c3c2=O)[C@H](OC(=O)/C=C/c2ccc(O)cc2)[C@H](OC(=O)/C=C/c2ccc(O)cc2)[C@H]1O [Compound 1, kaempferol 3-O-α-L-(2″,3″-di-E-p-coumaroyl)rhamnoside]
>8 µg/mL: MIC (Enterococcus faecalis; MMX 742, VSE, CHP) | MIC (Staphylococcus aureus; MMX 100, CLSI QC, ATCC 29213) | MIC (Staphylococcus aureus; MMX 753, MSSA, CHP) | MIC (Staphylococcus aureus; MMX 758, MRSA, CHP) | MIC (Staphylococcus aureus; MMX 2055, MRSA, UCLA) | MIC (Staphylococcus aureus; MMX 2063, MSSA, UCLA) | MIC (Staphylococcus aureus; MMX 3856, MSSA, Mt. Sinai) | MIC (Staphylococcus aureus; MMX 3894, MRSA, Mt. Sinai) | MIC ([1]; MMX 762, MRSE, CHP) | MIC ([1]; MMX 3752, MRSE, Mt. Sinai) | MIC (Enterococcus faecium; MMX 0799, VSE, CHP) | MIC (Enterococcus faecium; MMX 1259, VSE, Mt. Sinai) | MIC (Enterococcus faecium; MMX 4024, VRE, CHP) | MIC (Enterococcus faecium; MMX 4048, VRE, UCLA)
Neither compound was active: activity against the streptococci (streptococci)
4 µg/mL: MIC (Enterococcus faecalis; MMX 3199, VSE, UCLA) | MIC (Enterococcus faecalis; MMX 3821, VRE, Mt. Sinai) | MIC (Enterococcus faecalis; MMX 3896, VSE, Mt. Sinai) | MIC (Enterococcus faecalis; MMX 4160, VRE, UCLA) | MIC ([1]; MMX 835, MSSE, UCLA) | MIC ([1]; MMX 3703, MSSE, CHP) | MIC ([1]; MMX 3763, MSSE, Mt. Sinai)
8 µg/mL: MIC (Enterococcus faecalis; MMX 101, CLSI QC, ATCC 29212) | MIC ([1]; MMX 826, MRSE, UCLA)
No untoward effect: acute toxicity at maximum dose given [2]
>16 µg/mL: MIC (Streptococcus agalactiae; MMX 3743, Mt. Sinai) | MIC (Streptococcus agalactiae; MMX 4093, UCLA) | MIC (Streptococcus agalactiae; MMX 4106, CHP) | MIC (Streptococcus pyogenes; MMX 718, CHP) | MIC (Streptococcus pyogenes; MMX 2572, UCLA) | MIC (Streptococcus pyogenes; MMX 3928, Mt. Sinai) | MIC (Streptococcus pneumoniae; MMX 748, PRSP, CHP) | MIC (Streptococcus pneumoniae; MMX 866, PSSP, CHP) | MIC (Streptococcus pneumoniae; MMX 1195, CLSI QC, ATCC 49619) | MIC (Streptococcus pneumoniae; MMX 3130, PSSP, UCLA) | MIC (Streptococcus pneumoniae; MMX 3160, PRSP, UCLA) | MIC (Streptococcus pneumoniae; MMX 3937, PSSP, Mt. Sinai) | MIC (Streptococcus pneumoniae; MMX 3953, PRSP, Mt. Sinai)
0.5 µg/mL: MIC (Enterococcus faecium; MMX 1238, VRE, Mt. Sinai)
inhibited multiple strains: activity against enterococci (enterococci)
1 µg/mL: MIC (Enterococcus faecalis; MMX 4131, VRE, CHP) | MIC (Enterococcus faecium; MMX 0845, VSE, UCLA)
